Reference: publication PMC12951568, “Identifying Structural Factors Governing the Photodynamic Activity of Phthalocyanines” (Journal of Medicinal Chemistry, 2026)
Read-outs that look alike come from different tables or passages of the source.

Tests used:
[1] = Aggregation / monomerization in aqueous media (spectra in water and PBS); assay type: physicochemical; details: 1 μM
Method: (§1) An absorption spectrum of 2.475 mL of solvent (water, DMF, or PBS) was taken (i.e., absorption spectrum of baseline); then, 25 μL of stock solution was added to reach the final concentration of 1 μM in the cuvette, and the absorption and emission spectra were taken. Baseline of the solvent was subtracted from the obtained absorption spectrum to get the final absorption spectrum of the sample.

[2] = Log P, partition between n-octanol and PBS; assay type: physicochemical; details: partition coefficient between 1-octanol and PBS
Procedure, shortened: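 Sample from 100 μM stock added to equal volumes of n-octanol and PBS, vortexed 5 min at rt, centrifuged. Each layer diluted into DMF and emission spectra recorded; log P taken as log of octanol/PBS integrated fluorescence ratio, mean of triplicates.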

[3] = Fluorescence quantum yield, comparative method; assay type: physicochemical; details: in DMF; ZnPc as reference
Procedure, shortened: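 ΦF determined by the comparative method against ZnPc (ΦF 0.32 in THF), using integrated emission area, absorbance at the excitation wavelength and solvent refractive index. Q-band absorbance kept below 0.05; estimated error ± 15%.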

[4] = Quantum yield of singlet oxygen production, comparative method with DPBF scavenger; assay type: physicochemical; details: in DMF, ZnPc as reference
Procedure, shortened: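 Dye added from 100 μM DMF stock (or DMF/water, water); irradiated under stirring with xenon lamp through water filter and OG530 cut-off (>523 nm). DPBF decay followed at 415 nm; ΦΔ from ln(A0/At) slopes versus reference, normalised to absorbed light summed over 523–850 nm; triplicate means, ±10% error.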

[5] = Absorption and fluorescence emission spectra in DMF; assay type: physicochemical; details: in DMF
Method: as §1

[6] = test system: MCF-7 (human breast adenocarcinoma); parameters: method as in number not printed in Table 2; details: 12 h incubation, Xe-lamp 15 min, λ > 570 nm, 11.2 J/cm^2; mean ± SD; determined previously under the same conditions at the same workplace and published; ref number not given; cited from earlier work
[7] = test system: HeLa (human cervical carcinoma); details: 12 h incubation, Xe-lamp 15 min, λ > 570 nm, 11.2 J/cm^2; mean ± SD; determined previously under the same conditions at the same workplace and published; ref number not given; read-out: EC50 (nM) HeLa; cited from earlier work
[8] = test system: SK-MEL-28 (human skin melanoma); test: Photodynamic activity (phototoxicity, neutral red uptake) on SK-MEL-28; assay type: cell-based; details: 12 h incubation, Xe-lamp 15 min, λ > 570 nm, 11.2 J/cm^2, mean ± SD, t.w. = this work
[9] = test system: HeLa (human cervical carcinoma); test: Photodynamic activity (phototoxicity, neutral red uptake) on HeLa; assay type: cell-based; details: 12 h incubation, Xe-lamp 15 min, λ > 570 nm, 11.2 J/cm^2; mean ± SD; t.w. = this work
Method: Detailed in vitro studies involving subcellular localization and determination of the EC50 in three different cell lines (human cervical carcinoma–HeLa, human breast adenocarcinoma–MCF-7, and human skin melanoma–SK-MEL-28) were performed. A broadband light source (ozone-free 450 W Xe-lamp, Newport) equipped with the long-pass filter Schott OG570 was used (12.4 mW/cm^2, 15 min, 11.2 J/cm^2).
For the cytotoxicity experiments (phototoxicity), cells were seeded at 100 μL per well into 96-well plates (TPP, Switzerland) at a density of 7.5 × 10^3 (HeLa) or 1.0 × 10^4 (MCF-7 and SK-MEL-28) cells per well. Cells were left to grow for 24 h (until they reached confluency) in a controlled environment of a CO2 incubator (37 °C, 5% CO2 atmosphere, constant high humidity). Subsequently, studied compounds were added in a wide concentration range and incubated with the cells for 12 h. Cells were washed; fresh cell culture medium was added, and the cells were irradiated using a 450 W Xe lamp (Newport, USA). The lamp was equipped with a long pass filter (Newport OG570) and an 8 cm water filter (λ > 570 nm, 12.4 mW/cm^2, 15 min, 11.2 J/cm^2). Cellular viability was assessed after an additional 24 h by the neutral red (NR; Sigma, Merck, USA) uptake assay. At least three independent experiments, each in triplicate, were performed. The soluble NR was measured at λ = 540 nm using a Tecan Infinite 200 M plate reader (Tecan, Austria). The viability of each experimental group was expressed as the percentage of the untreated cells (100% viability) after subtraction of the signal from cells treated with a lethal dose of hydrogen peroxide (0% viability). […] EC50 values were calculated, and graphs were created by using GraphPad Prism 10.3.1 (Graph Pad software, USA).

[10] = Fluorescence lifetime in DMF; assay type: physicochemical
Source text: 1 Photophysical Data of Investigated Derivatives in DMF ^a | column: τF1/ns; τF2/ns

[11] = test system: MCF-7 (human breast adenocarcinoma); test: Photodynamic activity (phototoxicity, neutral red uptake) on MCF-7; assay type: cell-based; details: 12 h incubation, Xe-lamp 15 min, λ > 570 nm, 11.2 J/cm^2, mean ± SD, t.w. = this work
[12] = in EtOH; ref number not given; cited from earlier work

| Compound | aggregation / monomeric state [1] | Log P [2] | ΦF, fluorescence quantum yield [3] | ΦΔ, quantum yield of singlet oxygen production [4] | ε, extinction coefficient [5] | λA, absorption maximum in the Q-band [5] [nm] | λF, fluorescence emission maximum [5] [nm] | EC50 [6] [nM] | EC50 [7] [nM] | EC50 [8] [nM] | EC50 [9] [nM] | τF1, fluorescence lifetime (relative amplitude in brackets) [10] | τF2, fluorescence lifetime (relative amplitude in brackets) [10] | EC50 [11] [nM] | logP ([2]; n-octanol/PBS buffer) | ΦΔ(EtOH) [12] | EC50 ([8]; Homo sapiens, SK-MEL-28, light or radiation study) [nM] | EC50 ([11]; Homo sapiens, MCF7, light or radiation study) [nM] |
| --- | --- | --- | --- | --- | --- | --- | --- | --- | --- | --- | --- | --- | --- | --- | --- | --- | --- | --- |
| Cc1cc(Cn2cc[n+](C)c2)c(Oc2c3c(c(C)c(C)[n+]2C)C2=NC3=Nc3c4ccccc4c4[n]3[Zn][n]3c(c5ccccc5c3=N2)=NC2=NC(=N4)c3ccccc32)c(Cn2cc[n+](C)c2)c1.[I-].[I-].[I-] [C1Zn] | monomeric in DMF but are aggregated in PBS | 0.53 | 0.15 | 0.66 | 100 240 M^–1cm^–1 | 689 | 696 | 35 ± 2 | 27 ± 9 | 22 ± 3 | – | – | – | – | – | – | – | – |
| Cc1cc(Cn2cc[n+](C)c2)c(Oc2cc3c(cc2Oc2c(Cn4cc[n+](C)c4)cc(C)cc2Cn2cc[n+](C)c2)C2=Nc4c5ccccc5c5[n]4[Zn][n]4c(c6ccccc6c4=NC3=N2)=NC2=NC(=N5)c3ccccc32)c(Cn2cc[n+](C)c2)c1.[I-].[I-].[I-].[I-] [C3Zn] | monomeric in DMF but are aggregated in PBS | –0.84 | 0.19 | 0.53 | 177 190 M^–1cm^–1 | 673 | 682 | 21 ± 8 | 48 ± 19 | 40 ± 4 | – | – | – | – | – | – | – | – |
| C[n+]1cccc(Oc2cc3c(cc2Oc2ccc[n+](C)c2)C2=Nc4c5cc(Oc6ccc[n+](C)c6)c(Oc6ccc[n+](C)c6)cc5c5[n]4[Zn][n]4c(c6cc(Oc7ccc[n+](C)c7)c(Oc7ccc[n+](C)c7)cc6c4=NC4=NC(=N5)c5cc(Oc6ccc[n+](C)c6)c(Oc6ccc[n+](C)c6)cc54)=NC3=N2)c1.[I-].[I-].[I-].[I-].[I-].[I-].[I-].[I-] [C6Zn] | did not sufficiently suppress aggregation | –2.59 | 0.001 | 0.02 | 41 730 M^–1cm^–1 | 681 | 683 | – | – | 150 ± 50 | 58 ± 20 | 0.07 (3%) ns | 2.84 (97%) ns | 110 ± 30 | – | – | – | – |
| C=Cc1c(C)c2cc3nc(cc4[nH]c(cc5nc(cc1[nH]2)C(C)=C5CCC(=O)O)c(CCC(=O)OC)c4C)[C@@]1(C)C3=CC=C(C(=O)OC)[C@H]1C(=O)OC [verteporfin, reference compound] | – | – | 0.18 | – | – | 690 | 696 | – | 36 ± 10 | – | – | 6.05 ns | – | – | 2.51 | 0.51–0.67 | 21 ± 3 | 33 ± 3 |
| protoporhyrin IX [PpIX, reference compound] | – | 1.06 | 0.12 | – | – | 630 | 634 | – | – | 6200 ± 300 | 5500 ± 600 | – | – | 5700 ± 800 | – | 0.51–0.67 | – | – |
| temoporfin [reference compound] | – | 1.40 | 0.24 | – | – | 651 | 656 | – | 45 ± 7 | 103 ± 17 | – | 9.66 ns | – | 210 ± 74 | – | 0.51–0.67 | – | – |
